Data taken from ChEMBL document CHEMBL1151873, “Protein tyrosine phosphatase 1B inhibitory effects of depsidone and pseudodepsidone metabolites from the Antarctic lichen Stereocaulon alpinum” (Bioorg Med Chem Lett, 2009).
Calls of active or inactive are those of the source. The calls are words filed in the database; no cut-off is given here.

Experiments:
[1] = target: T1, Tyrosine-protein phosphatase non-receptor type 1 (Homo sapiens, UniProt P18031); assay: (§1) Inhibition of PTP1B
T1 sequence (P18031 whole entry): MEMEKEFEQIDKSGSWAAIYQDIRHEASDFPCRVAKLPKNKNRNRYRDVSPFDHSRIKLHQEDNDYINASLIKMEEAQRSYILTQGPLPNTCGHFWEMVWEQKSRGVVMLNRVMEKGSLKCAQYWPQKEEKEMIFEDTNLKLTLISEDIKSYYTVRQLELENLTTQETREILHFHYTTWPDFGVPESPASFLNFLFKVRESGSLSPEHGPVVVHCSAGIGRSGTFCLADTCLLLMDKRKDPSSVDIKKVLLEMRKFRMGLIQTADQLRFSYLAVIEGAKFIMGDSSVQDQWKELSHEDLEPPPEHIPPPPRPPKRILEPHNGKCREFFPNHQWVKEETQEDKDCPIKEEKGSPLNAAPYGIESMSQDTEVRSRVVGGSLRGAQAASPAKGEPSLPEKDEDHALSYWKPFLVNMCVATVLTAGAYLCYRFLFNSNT

[2] = target: T2, Tyrosine-protein phosphatase non-receptor type 1 (Homo sapiens) (UniProt P18031); assay: as §1
T2 sequence (whole entry): T1 sequence (P18031 whole entry)

[3] = target: T2, Tyrosine-protein phosphatase non-receptor type 1 (Homo sapiens); assay: Non competitive inhibition of PTP1B assessed as inhibition of substrate catalysis by Lineweaver-Burke plot

Row | IC50 [1] [µM] | Activity [2] | Activity [3] | Compound
1 | 7.42 |  |  | CCCCCc1c2c(cc(OC)c1C(=O)OC)OC(=O)c1c(cc(OC)cc1C(=O)CCCC)O2
2 |  | Dose-dependent effect | Active | CCCCCc1c2c(cc(O)c1C(=O)O)OC(=O)c1c(cc(OC)cc1C(=O)CCCC)O2
3 | 2.48 | Dose-dependent effect |  | CCCCCc1c(Oc2cc(OC)cc3c2C(=O)OC3(CCCC)OC)c(O)cc(O)c1C(=O)O (stereo not drawn)
4 | 3.02 |  |  | CCCCCc1c2c(cc(O)c1C(=O)OC)OC(=O)c1c(cc(OC)cc1C(=O)CCCC)O2
5 | > 200 |  |  | COC(=O)c1c(C)cc(O)cc1O [METHYL ORSELLINATE]
6 | > 200 |  |  | COc1cc(O)c(C(C)=O)c(O)c1C
7 | 6.86 | Dose-dependent effect | Active | CCCCCc1cc(O)cc(O)c1Oc1cc(OC)cc2c1C(=O)OC2(CCCC)OC (stereo not drawn)
8 | > 200 |  |  | COC(=O)c1c(C)cc(O)c(C=O)c1O [METHYL HAEMATOMMATE]
9 | 63.5 |  |  | COC(=O)c1c(C)cc(OC(=O)c2c(C)cc(O)c(C=O)c2O)c(C)c1O [ATRANORIN]
